Read-outs that look alike come from different tables or passages of the source.
Key:
[1] = pH 6
[2] = Assay I: SNAC solubility in combination with selected hydrotropes; settings: for Fold increase in solubility: SNAC solubility relative to SNAC control (no hydrotrope), hydrotrope 200 mg/mL, pH 6; for SNAC concentration: hydrotrope 200 mg/mL in ultrapure water, pH 6, 200 mg SNAC added, 4 hours at room temperature, RP-HPLC
[3] = pH 6; remark: listed apart in the source

What does the source list for `O=C([O-])c1ccccc1O.[Na+]` [Sodium salicylate]?
Fold increase in solubility [1]: 2.7 fold; SNAC concentration [1]: 1.59 mg/mL

With `CCN(CC)C(=O)c1cccnc1` [N,N diethyl nicotinamide] as the compound, how does the “Fold increase in solubility” value [2] read?
The value was 7.8 fold.

And the SNAC concentration [2]?
Its SNAC concentration is 4.58 mg/mL.

Which “effect on SNAC solubility (FIG. 1)” value [3] does the source give for `NC(=O)c1cccnc1` [Nicotinamide] here?
Its value is “dose dependent effect”.

With `NC(N)=O` [Urea] as the compound, how does the “Fold increase in solubility” value [2] read?
Its value is 1.3 fold.

What about the SNAC concentration [2] of the same compound?
Its SNAC concentration is 0.77 mg/mL.

Which results are given for `O=C(O[C@@H]1Cc2c(O)cc(O)cc2O[C@@H]1c1cc(O)c(O)c(O)c1)c1cc(O)c(O)c(O)c1` [Epigallocatechin gallate]?
Fold increase in solubility [2]: 9.6 fold; SNAC concentration [2]: 5.66 mg/mL

What does the source list for `CN(C)C(=O)c1ccccc1` [N,N dimethyl benzamide]?
Fold increase in solubility [2]: 38 fold; SNAC concentration [2]: 22.46 mg/mL
